Data reported in ChEMBL document CHEMBL3217591, “Synthesis and biological evaluation of imidazolylmethylacridones as cytochrome P-450 enzymes inhibitors” (Medchemcomm, 2012).

Tests used:
[1] = target: T1, Cytochrome P450 11B2, mitochondrial (Homo sapiens, UniProt P19099); assay: Inhibition of CYP11B2 (unknown origin) expressed in Chinese hamster V79MZ cells using [1,2-3H]-11-deoxycorticosterone as substrate at 500 nM preincubated for 60 mins followed by substrate addition measured after 50 mins by HPLC analysis relative to control; format: cell-based
T1 sequence (P19099 whole entry): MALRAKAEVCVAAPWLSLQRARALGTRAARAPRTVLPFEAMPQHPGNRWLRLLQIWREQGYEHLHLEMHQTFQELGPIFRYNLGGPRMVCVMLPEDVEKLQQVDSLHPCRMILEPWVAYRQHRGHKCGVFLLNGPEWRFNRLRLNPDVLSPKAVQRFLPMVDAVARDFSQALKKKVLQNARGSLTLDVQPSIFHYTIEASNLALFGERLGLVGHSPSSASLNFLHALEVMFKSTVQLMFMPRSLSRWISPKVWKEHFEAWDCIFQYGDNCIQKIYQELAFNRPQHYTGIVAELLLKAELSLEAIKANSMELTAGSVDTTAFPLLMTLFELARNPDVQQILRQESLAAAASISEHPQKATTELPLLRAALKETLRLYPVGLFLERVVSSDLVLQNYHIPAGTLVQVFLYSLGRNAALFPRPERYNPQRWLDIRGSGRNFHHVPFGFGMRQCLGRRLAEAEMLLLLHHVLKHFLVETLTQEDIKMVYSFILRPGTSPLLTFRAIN

Aromatase [2] = target: T2, Aromatase (Homo sapiens, UniProt P11511); assay: Inhibition of CYP19 isolated from microsomal fraction of human term placental tissue using [1beta-3H] androstenedione as substrate at 2 uM preincubated for 5 mins followed by enzyme addition measured after 20 mins by beta scintillation counting analysis relative to control
T2 sequence (P11511 whole entry): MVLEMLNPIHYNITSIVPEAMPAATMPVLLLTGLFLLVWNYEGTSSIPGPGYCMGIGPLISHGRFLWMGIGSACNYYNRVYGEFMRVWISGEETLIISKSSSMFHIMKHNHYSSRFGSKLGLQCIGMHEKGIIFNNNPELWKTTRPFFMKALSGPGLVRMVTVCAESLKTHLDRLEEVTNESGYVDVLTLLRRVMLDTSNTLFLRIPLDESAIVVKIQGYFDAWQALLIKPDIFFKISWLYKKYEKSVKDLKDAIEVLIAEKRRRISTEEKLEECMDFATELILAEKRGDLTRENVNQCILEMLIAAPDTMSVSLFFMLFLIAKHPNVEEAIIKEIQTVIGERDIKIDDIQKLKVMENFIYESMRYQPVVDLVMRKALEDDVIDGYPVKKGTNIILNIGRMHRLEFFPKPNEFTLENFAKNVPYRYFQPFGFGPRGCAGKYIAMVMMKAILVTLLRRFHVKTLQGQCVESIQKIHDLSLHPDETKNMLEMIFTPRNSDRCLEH

[3] = target: T3, Cytochrome P450 11B1, mitochondrial (Homo sapiens, UniProt P15538); assay: Inhibition of CYP11B1 (unknown origin) expressed in Chinese hamster V79MZ cells using [1,2-3H]-11-deoxycorticosterone as substrate preincubated for 60 mins followed by substrate addition measured after 25 mins by HPLC analysis; format: cell-based
T3 sequence (P15538 whole entry): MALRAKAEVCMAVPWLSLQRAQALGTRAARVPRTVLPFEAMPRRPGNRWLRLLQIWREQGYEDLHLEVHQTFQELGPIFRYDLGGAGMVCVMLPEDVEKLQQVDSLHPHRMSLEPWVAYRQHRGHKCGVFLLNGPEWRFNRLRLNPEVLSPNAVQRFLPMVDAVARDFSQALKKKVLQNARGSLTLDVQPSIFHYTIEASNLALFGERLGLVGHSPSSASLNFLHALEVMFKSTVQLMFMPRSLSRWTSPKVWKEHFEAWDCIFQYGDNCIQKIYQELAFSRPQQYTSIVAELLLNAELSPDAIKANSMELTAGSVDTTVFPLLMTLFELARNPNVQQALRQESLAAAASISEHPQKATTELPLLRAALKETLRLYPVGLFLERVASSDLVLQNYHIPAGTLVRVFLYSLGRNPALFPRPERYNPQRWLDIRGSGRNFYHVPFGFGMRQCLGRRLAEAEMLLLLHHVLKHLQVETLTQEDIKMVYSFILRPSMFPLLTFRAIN

Aromatase [4] = target: T2, Aromatase; assay: Inhibition of CYP19 isolated from microsomal fraction of human term placental tissue using [1beta-3H] androstenedione as substrate preincubated for 5 mins followed by enzyme addition measured after 20 mins by beta scintillation counting analysis
[5] = target: T4, Steroid 17-alpha-hydroxylase/17,20 lyase (Homo sapiens, UniProt P05093); assay: Inhibition of human CYP17 expressed in Escherichia coli using progesterone as substrate at 2 uM preincubated for 5 mins followed by enzyme addition measured after 30 mins by HPLC analysis relative to control; settings: 0.5 h
T4 sequence (P05093 whole entry): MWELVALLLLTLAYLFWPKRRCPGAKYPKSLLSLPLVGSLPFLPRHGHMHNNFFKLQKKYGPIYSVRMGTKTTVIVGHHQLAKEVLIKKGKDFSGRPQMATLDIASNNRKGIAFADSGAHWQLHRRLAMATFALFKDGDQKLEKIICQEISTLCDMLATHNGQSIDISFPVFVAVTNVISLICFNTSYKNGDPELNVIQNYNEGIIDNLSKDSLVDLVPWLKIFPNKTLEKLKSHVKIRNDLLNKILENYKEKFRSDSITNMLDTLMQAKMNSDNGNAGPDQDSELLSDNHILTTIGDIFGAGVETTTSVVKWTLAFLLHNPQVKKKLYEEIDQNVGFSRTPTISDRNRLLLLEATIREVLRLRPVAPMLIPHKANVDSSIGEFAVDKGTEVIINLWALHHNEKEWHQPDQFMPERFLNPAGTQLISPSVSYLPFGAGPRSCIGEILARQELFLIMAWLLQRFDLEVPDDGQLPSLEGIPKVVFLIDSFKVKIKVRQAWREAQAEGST

[6] = target: T3, Cytochrome P450 11B1, mitochondrial; assay: Inhibition of CYP11B1 (unknown origin) expressed in Chinese hamster V79MZ cells using [1,2-3H]-11-deoxycorticosterone as substrate at 500 nM preincubated for 60 mins followed by substrate addition measured after 25 mins by HPLC analysis relative to control; format: cell-based

Structure (SMILES)	inhibition at 0.5 µM [1] [%]	inhibition at 2 µM (Aromatase [2]) [%]	IC50 [3] [nM]	IC50 (Aromatase [4]) [nM]	inhibition at 2 µM [5] [%]	inhibition at 0.5 µM [6] [%]
O=c1c2ccccc2[nH]c2c(Cn3ccnc3)cccc12	40.8	95.5	21.2	14.4	1.4	97.5
O=c1c2ccccc2[nH]c2ccc(Cn3ccnc3)cc12	3.4	0	–	–	0	40.7
N#Cc1ccc(C(c2ccc(C#N)cc2)n2cncn2)cc1 [LETROZOLE]	25.6	99	–	–	6.8	16.4
CC(C)(C(=O)c1cccnc1)c1cccnc1 [METYRAPONE]	95	0	–	–	–	98
